Where “and” joins values, the source holds several entries; their conditions need not be identical. Identical values can stand only once.
Test: xn = mol fraction of the nth substance listed

CCCCN + O
viscosity
Settings	298.15 K	303.15 K	308.15 K	313.15 K	318.15 K	323.15 K
100 kPa, x1 = 0.1	–	1.869 mPa·s	–	1.43 mPa·s	–	1.133 mPa·s
100 kPa, x1 = 0.2	–	2.115 mPa·s	–	1.604 mPa·s	–	1.25 mPa·s
100 kPa, x1 = 0.3	–	1.933 mPa·s	–	1.462 mPa·s	–	1.143 mPa·s
100 kPa, x1 = 0.4	–	1.597 mPa·s	–	1.234 mPa·s	–	0.979 mPa·s
100 kPa, x1 = 0.5	–	1.273 mPa·s	–	0.996 mPa·s	–	0.808 mPa·s
100 kPa, x1 = 0.6	–	0.993 mPa·s	–	0.796 mPa·s	–	0.654 mPa·s
100 kPa, x1 = 0.7	–	0.786 mPa·s	–	0.649 mPa·s	–	0.547 mPa·s
100 kPa, x1 = 0.8	–	0.626 mPa·s	–	0.533 mPa·s	–	0.453 mPa·s
100 kPa, x1 = 0.9	–	0.541 mPa·s	–	0.454 mPa·s	–	0.393 mPa·s
101.33 kPa, x1 = 0.0001	–	0.8019 mPa·s	0.7212 mPa·s	0.6564 mPa·s	0.6007 mPa·s	0.5542 mPa·s
101.33 kPa, x1 = 0.1	2.372 mPa·s	1.885 mPa·s	1.642 mPa·s	1.574 mPa·s and 1.441 mPa·s	1.278 mPa·s	1.142 mPa·s
101.33 kPa, x1 = 0.1998	–	2.149 mPa·s	1.861 mPa·s	1.625 mPa·s	1.433 mPa·s	1.271 mPa·s
101.33 kPa, x1 = 0.2	2.685 mPa·s	–	–	1.742 mPa·s	–	–
101.33 kPa, x1 = 0.2999	–	1.964 mPa·s	1.707 mPa·s	1.494 mPa·s	1.318 mPa·s	1.172 mPa·s
101.33 kPa, x1 = 0.3999	–	1.601 mPa·s	1.405 mPa·s	1.242 mPa·s	1.111 mPa·s	0.9871 mPa·s
101.33 kPa, x1 = 0.4	2.006 mPa·s	–	–	1.353 mPa·s	–	–
101.33 kPa, x1 = 0.5	–	1.259 mPa·s	1.118 mPa·s	0.9974 mPa·s	0.8979 mPa·s	0.8131 mPa·s
101.33 kPa, x1 = 0.5997	–	0.9797 mPa·s	0.8813 mPa·s	0.7976 mPa·s	0.726 mPa·s	0.6647 mPa·s
101.33 kPa, x1 = 0.6	1.153 mPa·s	–	–	0.842 mPa·s	–	–
101.33 kPa, x1 = 0.7	–	0.7677 mPa·s	0.701 mPa·s	0.6419 mPa·s	0.5911 mPa·s	0.5472 mPa·s
101.33 kPa, x1 = 0.7999	–	0.6277 mPa·s	0.5795 mPa·s	0.5366 mPa·s	0.4994 mPa·s	0.4656 mPa·s
101.33 kPa, x1 = 0.8	0.686 mPa·s	–	–	0.54 mPa·s	–	–
101.33 kPa, x1 = 0.9001	–	0.5178 mPa·s	0.4829 mPa·s	0.4518 mPa·s	0.4243 mPa·s	0.399 mPa·s
